In PubChem BioAssay (NCI):
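Interpolation was linear, between the two tested concentrations surrounding the appropriate level; five concentrations were tested over 48 hours in 96-well plates. GI50: concentration for 50% inhibition of growth. TGI denotes the concentration required for complete inhibition of growth.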

Columns and labels:
Test in all cases: DTP human tumour cell line panel, 48 h
K-562 leukemia = test system: K-562 leukemia
BT-549 breast = test system: BT-549 breast
MALME-3M melanoma = test system: MALME-3M melanoma
NCI-H226 lung = test system: NCI-H226 lung
HS 578T breast = test system: HS 578T breast
CAKI-1 renal = test system: CAKI-1 renal
T-47D breast = test system: T-47D breast
MDA-MB-468 breast = test system: MDA-MB-468 breast
HOP-62 NSCLC = test system: HOP-62 NSCLC
PC-3 prostate = test system: PC-3 prostate
MDA-MB-435 = test system: MDA-MB-435
ACHN renal = test system: ACHN renal
OVCAR-8 ovarian = test system: OVCAR-8 ovarian
A498 renal = test system: A498 renal
SF-539 CNS = test system: SF-539 CNS
SNB-75 CNS = test system: SNB-75 CNS
OVCAR-4 ovarian = test system: OVCAR-4 ovarian
HL-60(TB) leukemia = test system: HL-60(TB) leukemia
SK-OV-3 ovarian = test system: SK-OV-3 ovarian
M14 melanoma = test system: M14 melanoma
IGROV1 ovarian = test system: IGROV1 ovarian
SN12C renal = test system: SN12C renal
NCI-H460 lung = test system: NCI-H460 lung
SNB-19 CNS = test system: SNB-19 CNS
SK-MEL-28 melanoma = test system: SK-MEL-28 melanoma
NCI-H23 lung = test system: NCI-H23 lung
HOP-92 NSCLC = test system: HOP-92 NSCLC
RXF 393 renal = test system: RXF 393 renal
HCT-116 colon = test system: HCT-116 colon
NCI/ADR-RES ovarian = test system: NCI/ADR-RES ovarian

C=CC(=O)Nc1ccc(C(=O)/C=C/c2ccc(N(C)CCF)cc2)c(O)c1
TGI (K-562 leukemia): 24 µM
GI50 (BT-549 breast): 1.55 µM
TGI (BT-549 breast): 3.78 µM
GI50 (MALME-3M melanoma): 1.43 µM
TGI (MALME-3M melanoma): 3.46 µM
GI50 (NCI-H226 lung): 1.92 µM
TGI (NCI-H226 lung): 5.32 µM
GI50 (HS 578T breast): 2.97 µM
TGI (HS 578T breast): 17.3 µM
GI50 (CAKI-1 renal): 1.87 µM
TGI (CAKI-1 renal): 4.14 µM
GI50 (T-47D breast): 2.47 µM
TGI (T-47D breast): 10 µM
GI50 (MDA-MB-468 breast): 1.63 µM
TGI (MDA-MB-468 breast): 4.28 µM
GI50 (HOP-62 NSCLC): 3.26 µM
TGI (HOP-62 NSCLC): 13 µM
GI50 (PC-3 prostate): 2.22 µM
TGI (PC-3 prostate): 13.6 µM
GI50 (MDA-MB-435): 1.72 µM
TGI (MDA-MB-435): 4.6 µM
GI50 (ACHN renal): 1.66 µM
TGI (ACHN renal): 3.45 µM
GI50 (OVCAR-8 ovarian): 1.51 µM
TGI (OVCAR-8 ovarian): 3.86 µM
GI50 (A498 renal): 3.52 µM
TGI (A498 renal): 17.7 µM
GI50 (SF-539 CNS): 1.67 µM
TGI (SF-539 CNS): 3.5 µM
GI50 (SNB-75 CNS): 2.1 µM
TGI (SNB-75 CNS): 9.84 µM
GI50 (OVCAR-4 ovarian): 2.95 µM
TGI (OVCAR-4 ovarian): 14 µM
GI50 (HL-60(TB) leukemia): 1.77 µM
TGI (HL-60(TB) leukemia): 5.3 µM
GI50 (SK-OV-3 ovarian): 6.47 µM
TGI (SK-OV-3 ovarian): 21.4 µM
GI50 (M14 melanoma): 1.7 µM
TGI (M14 melanoma): 4.19 µM
GI50 (IGROV1 ovarian): 2 µM
TGI (IGROV1 ovarian): 6 µM
GI50 (SN12C renal): 1.86 µM
TGI (SN12C renal): 5.2 µM
GI50 (NCI-H460 lung): 1.87 µM
TGI (NCI-H460 lung): 5.46 µM
GI50 (SNB-19 CNS): 3.67 µM
TGI (SNB-19 CNS): 15 µM
GI50 (SK-MEL-28 melanoma): 1.58 µM
TGI (SK-MEL-28 melanoma): 3.14 µM
GI50 (NCI-H23 lung): 1.68 µM
TGI (NCI-H23 lung): 3.99 µM
GI50 (HOP-92 NSCLC): 0.527 µM
TGI (HOP-92 NSCLC): 4 µM
GI50 (RXF 393 renal): 1.52 µM
TGI (RXF 393 renal): 3.09 µM
GI50 (HCT-116 colon): 1.5 µM
TGI (HCT-116 colon): 3 µM
GI50 (NCI/ADR-RES ovarian): 1.55 µM
TGI (NCI/ADR-RES ovarian): 4.4 µM
